Measurements taken from paper PMC11702115 (BMC Biology, 2025).

Tests used:
OfurIR75/OfurIR8a = OfurIR75/OfurIR8a (Ostrinia furnacalis, UniProt A0A0F7QIG0); assay: two-electrode voltage clamp, Xenopus oocytes; format: cell-based; details: agonist, IR8a co-expressed, 10 uM screen, -80 mV, pH 7.6
HarmOR52 (with HarmOrco) = biological target: T1, HarmOR52 (with HarmOrco) (Helicoverpa armigera, UniProt A0A7T3KAH2); assay: two-electrode voltage clamp, Xenopus oocytes; format: cell-based; details: agonist; Orco co-expressed; 100 uM screen, dose series; -80 mV, pH 7.6
T1 sequence (A0A7T3KAH2 1-419): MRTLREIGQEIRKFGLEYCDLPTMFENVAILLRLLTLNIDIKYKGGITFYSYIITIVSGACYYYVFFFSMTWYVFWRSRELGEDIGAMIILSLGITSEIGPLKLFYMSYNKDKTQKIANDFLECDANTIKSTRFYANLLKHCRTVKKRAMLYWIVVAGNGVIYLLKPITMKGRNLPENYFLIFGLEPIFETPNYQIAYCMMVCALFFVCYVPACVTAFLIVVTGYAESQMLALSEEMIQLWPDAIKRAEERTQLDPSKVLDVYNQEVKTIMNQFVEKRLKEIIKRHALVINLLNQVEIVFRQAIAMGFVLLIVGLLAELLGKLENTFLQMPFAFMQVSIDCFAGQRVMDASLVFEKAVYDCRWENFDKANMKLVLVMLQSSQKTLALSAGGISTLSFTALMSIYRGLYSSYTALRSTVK

OfurIR75/OfurIR8a, sequence (A0A0F7QIG0 19-626): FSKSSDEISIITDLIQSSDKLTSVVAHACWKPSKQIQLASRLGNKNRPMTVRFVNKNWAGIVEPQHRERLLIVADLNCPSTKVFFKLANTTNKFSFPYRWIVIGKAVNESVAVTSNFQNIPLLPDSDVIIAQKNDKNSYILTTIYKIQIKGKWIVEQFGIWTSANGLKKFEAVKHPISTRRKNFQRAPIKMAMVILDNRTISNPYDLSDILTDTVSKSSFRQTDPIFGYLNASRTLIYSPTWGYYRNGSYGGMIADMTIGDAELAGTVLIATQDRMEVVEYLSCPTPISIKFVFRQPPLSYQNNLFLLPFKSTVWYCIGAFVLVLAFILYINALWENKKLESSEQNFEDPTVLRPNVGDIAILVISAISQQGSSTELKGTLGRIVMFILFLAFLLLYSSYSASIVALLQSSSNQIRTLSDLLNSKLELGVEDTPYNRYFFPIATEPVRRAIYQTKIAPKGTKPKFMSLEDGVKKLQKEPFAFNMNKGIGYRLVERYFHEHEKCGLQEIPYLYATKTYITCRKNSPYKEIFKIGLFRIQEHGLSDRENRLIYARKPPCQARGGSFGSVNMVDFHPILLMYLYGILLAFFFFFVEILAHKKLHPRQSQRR
OfurIR75/OfurIR8a, sequence (A0A0F7QED2 20-902 partner): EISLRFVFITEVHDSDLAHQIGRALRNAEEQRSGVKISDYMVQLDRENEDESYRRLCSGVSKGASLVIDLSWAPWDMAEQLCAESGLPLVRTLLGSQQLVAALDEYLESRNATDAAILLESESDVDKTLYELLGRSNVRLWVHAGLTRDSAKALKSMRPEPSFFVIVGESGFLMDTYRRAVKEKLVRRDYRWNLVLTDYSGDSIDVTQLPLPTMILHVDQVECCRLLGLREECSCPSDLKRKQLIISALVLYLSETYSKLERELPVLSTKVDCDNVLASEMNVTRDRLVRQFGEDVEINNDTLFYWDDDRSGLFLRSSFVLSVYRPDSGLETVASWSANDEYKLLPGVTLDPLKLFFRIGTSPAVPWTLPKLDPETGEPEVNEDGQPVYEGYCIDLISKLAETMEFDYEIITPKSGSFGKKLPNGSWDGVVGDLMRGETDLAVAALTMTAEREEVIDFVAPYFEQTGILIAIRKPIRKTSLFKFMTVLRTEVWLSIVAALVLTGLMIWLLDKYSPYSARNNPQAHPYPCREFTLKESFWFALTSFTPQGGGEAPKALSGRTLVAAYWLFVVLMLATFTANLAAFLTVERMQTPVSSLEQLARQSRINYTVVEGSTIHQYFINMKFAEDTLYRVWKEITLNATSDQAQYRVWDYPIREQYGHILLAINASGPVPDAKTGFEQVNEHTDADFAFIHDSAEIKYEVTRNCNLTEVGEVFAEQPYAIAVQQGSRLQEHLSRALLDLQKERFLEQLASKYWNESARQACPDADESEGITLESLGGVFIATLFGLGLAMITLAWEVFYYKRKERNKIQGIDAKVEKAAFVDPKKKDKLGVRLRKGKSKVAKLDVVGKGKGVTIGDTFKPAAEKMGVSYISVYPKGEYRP

SMILES: CCCCCCC(=O)O [heptanoic acid]
- two-electrode voltage clamp, Xenopus oocytes (OfurIR75/OfurIR8a): Weaker responses were elicited by heptanoic acid and octanoic acid

SMILES: CCCCCC(=O)O [hexanoic acid]
- two-electrode voltage clamp, Xenopus oocytes (OfurIR75/OfurIR8a; dose series): OfurIR75/OfurIR8a responded strongly with similar magnitudes to pentanoic acid and hexanoic acid

SMILES: CC(C)CCO [isoamyl alcohol]
- two-electrode voltage clamp, Xenopus oocytes (HarmOR52 (with HarmOrco)): receptors from this clade exhibited similar response profiles, with isoamyl alcohol as the primary ligand

SMILES: CCCCCCCC(=O)O [octanoic acid]
- two-electrode voltage clamp, Xenopus oocytes (OfurIR75/OfurIR8a): Weaker responses were elicited by heptanoic acid and octanoic acid

SMILES: CCCCC(=O)O [pentanoic acid]
- two-electrode voltage clamp, Xenopus oocytes (OfurIR75/OfurIR8a; dose series): OfurIR75/OfurIR8a responded strongly with similar magnitudes to pentanoic acid and hexanoic acid

SMILES: CCCCCO [pentanol]
- two-electrode voltage clamp, Xenopus oocytes (HarmOR52 (with HarmOrco)): dose-dependent, with a higher sensitivity to isoamyl alcohol compared to pentanol
